{
  "source": "paper PMC10961402",
  "about": "“Safety, tolerability, pharmacokinetics and pharmacokinetic-pharmacodynamic modeling of cetagliptin in patients with type 2 diabetes mellitus” (Frontiers in Endocrinology, 2024)",
  "key": {"[1]": {"test": "Plasma pharmacokinetics after single and multiple oral doses (non-compartmental analysis)", "format": "in vivo, human", "conditions": "patients with T2DM; for Tmax,ss / Tmax: median (range)", "procedure": "This was a single-center, randomized, double-blind, placebo and positive-controlled, single and multiple oral-dose study. A total of 32 Chinese adults diagnosed with T2DM were recruited for this study and allocated into two dosage groups: 50 mg and 100 mg, each consisting of 16 participants. […] The positive control was designed as open label. […] Subjects underwent medication randomization on day -1, and were assigned the corresponding investigational products. They were orally administered to the drug once every morning on fasting condition for 14 consecutive days. […] After finished the dosing, another OGTT was performed on day 15. Blood samples were collected at designated time points for the analysis of PK/PD and exploratory indicators. Subjects were discharged after completion of the safety assessments on day 19. […] PK parameters were calculated using non-compartmental analysis with Phoenix WinNonlin (version 8.1, Certara, Co., Princeton, NJ, United States). Peak plasma concentration after administration (Cmax) and time to reach Cmax (Tmax) were obtained directly from the observed data, elimination half-life (t1/2) was calculated as ln2/λz using the best fit mode, where λz was the terminal elimination rate constant. Area under the plasma concentration-time curve from zero to the last measurable concentration (AUC0-t) was estimated using the linear trapezoidal method and AUC from zero to infinity (AUC0-∞) was calculated as AUC0-t+Ct/λz, where Ct was the last measured concentration. […] Apparent total plasma clearance after non-intravenous (CL/F) and apparent volume of distribution in terminal phase after non-intravenous (Vz/F) were calculated as Dose/AUC0-∞ and CL/λz, respectively."}, "plasma active GLP-1": {"system": "plasma active GLP-1", "parameters": "method as in PMID 34965609", "conditions": "healthy subjects, cited from earlier work"}, "[2]": {"conditions": "50 mg oral once daily, listed as cetagliptin"}, "[3]": {"conditions": "100 mg oral once daily, listed as cetagliptin"}},
  "note": "Read-outs that look alike come from different tables or passages of the source.",
  "data": [
    {"smiles": "C[C@@H]1c2cnc(C(F)(F)F)n2CCN1C(=O)C[C@H](N)Cc1cc(F)c(F)cc1F.O=P(O)(O)O", "note": "[Cetagliptin, cetagliptin]", "values": [
      {"measurement": "RAUC (accumulation ratio of AUC0-24h, day 14/day 1)", "setting": "[1]; 50 mg oral once daily", "result": "2.13 ± 0.225"},
      {"measurement": "RCmax (accumulation ratio of Cmax, day 14/day 1)", "setting": "[1]; 50 mg oral once daily", "result": "2.01 ± 0.417"},
      {"measurement": "AUC0-24h", "setting": "[1]; 50 mg oral once daily, day 14", "result": "1530 ± 274", "unit": "ng·h/mL"},
      {"measurement": "AUC0-∞", "setting": "[1]; 50 mg oral once daily, day 14", "result": "2710 ± 577", "unit": "ng·h/mL"},
      {"measurement": "AUC(0-t)", "setting": "[1]; 50 mg oral once daily, day 14", "result": "2510 ± 512", "unit": "ng·h/mL"},
      {"measurement": "CLss/F", "setting": "[1]; 50 mg oral once daily, day 14", "result": "33.6 ± 5.86", "unit": "L/h"},
      {"measurement": "Cavg", "setting": "[1]; 50 mg oral once daily, day 14", "result": "63.9 ± 11.4", "unit": "ng/mL"},
      {"measurement": "Cmax,ss", "setting": "[1]; 50 mg oral once daily, day 14", "result": "162 ± 58.1", "unit": "ng/mL"},
      {"measurement": "Vz,ss/F", "setting": "[1]; 50 mg oral once daily, day 14", "result": "2010 ± 610", "unit": "L"},
      {"measurement": "t1/2", "setting": "[1]; 50 mg oral once daily, day 14", "result": "41.9 ± 11.0", "unit": "h"},
      {"measurement": "CLss/F", "setting": "[1]; 50 mg oral once daily, day 14, listed as cetagliptin", "result": 33.6, "unit": "L/h"},
      {"measurement": "Tmax,ss", "setting": "[1]; 50 mg oral once daily, day 14", "result": "1.00 (0.500-5.00) h"},
      {"measurement": "RAUC (accumulation ratio of AUC0-24h, day 14/day 1)", "setting": "[1]; [2]", "result": 2.13},
      {"measurement": "RCmax (accumulation ratio of Cmax, day 14/day 1)", "setting": "[1]; [2]", "result": 2.01},
      {"measurement": "AUC0-24h", "setting": "[1]; 50 mg oral, day 1", "result": "717 ± 86.0", "unit": "ng·h/mL"},
      {"measurement": "Cmax", "setting": "[1]; 50 mg oral, day 1", "result": "80.5 ± 23.3", "unit": "ng/mL"},
      {"measurement": "Tmax", "setting": "[1]; 50 mg oral, day 1", "result": "2.00 (1.00-4.00) h"},
      {"measurement": "RAUC (accumulation ratio of AUC0-24h, day 14/day 1)", "setting": "[1]; 100 mg oral once daily", "result": "1.75 ± 0.305"},
      {"measurement": "RCmax (accumulation ratio of Cmax, day 14/day 1)", "setting": "[1]; 100 mg oral once daily", "result": "1.49 ± 0.542"},
      {"measurement": "AUC0-24h", "setting": "[1]; 100 mg oral once daily, day 14", "result": "3120 ± 263", "unit": "ng·h/mL"},
      {"measurement": "AUC0-∞", "setting": "[1]; 100 mg oral once daily, day 14", "result": "4780 ± 361", "unit": "ng·h/mL"},
      {"measurement": "AUC(0-t)", "setting": "[1]; 100 mg oral once daily, day 14", "result": "4580 ± 356", "unit": "ng·h/mL"},
      {"measurement": "CLss/F", "setting": "[1]; 100 mg oral once daily, day 14", "result": "32.2 ± 2.57", "unit": "L/h"},
      {"measurement": "Cavg", "setting": "[1]; 100 mg oral once daily, day 14", "result": "130 ± 11.0", "unit": "ng/mL"},
      {"measurement": "Cmax,ss", "setting": "[1]; 100 mg oral once daily, day 14", "result": "300 ± 46.9", "unit": "ng/mL"},
      {"measurement": "Vz,ss/F", "setting": "[1]; 100 mg oral once daily, day 14", "result": "1640 ± 628", "unit": "L"},
      {"measurement": "t1/2", "setting": "[1]; 100 mg oral once daily, day 14", "result": "34.9 ± 12.3", "unit": "h"},
      {"measurement": "CLss/F", "setting": "[1]; 100 mg oral once daily, day 14, listed as cetagliptin", "result": 32.2, "unit": "L/h"},
      {"measurement": "Tmax,ss", "setting": "[1]; 100 mg oral once daily, day 14", "result": "1.00 (0.500-3.00) h"},
      {"measurement": "RAUC (accumulation ratio of AUC0-24h, day 14/day 1)", "setting": "[1]; [3]", "result": 1.75},
      {"measurement": "RCmax (accumulation ratio of Cmax, day 14/day 1)", "setting": "[1]; [3]", "result": 1.49},
      {"measurement": "AUC0-24h", "setting": "[1]; 100 mg oral, day 1", "result": "1830 ± 347", "unit": "ng·h/mL"},
      {"measurement": "Cmax", "setting": "[1]; 100 mg oral, day 1", "result": "219 ± 72.3", "unit": "ng/mL"},
      {"measurement": "Tmax", "setting": "[1]; 100 mg oral, day 1", "result": "1.00 (1.00-3.00) h"},
      {"measurement": "mean t1/2 (half-life)", "setting": "[1]; multiple oral doses, range over 50 mg and 100 mg groups", "result": "34.9 to 41.9", "unit": "h"},
      {"measurement": "time of daily dosing after which steady-state conditions were reached", "setting": "[1]; once daily dosing, trough concentrations days 7, 10, 14", "result": 1, "unit": "week"},
      {"measurement": "accumulation ratios of Rmax and AUEC0-24 h for plasma active GLP-1", "setting": "plasma active GLP-1; 50 mg", "result": "about 1.0"},
      {"measurement": "accumulation ratios of Rmax and AUEC0-24 h for plasma active GLP-1", "setting": "plasma active GLP-1; 100 mg", "result": "about 1.0"}
    ]}
  ]
}
